Data: publication PMC11087509, “Multimodal binding and inhibition of bacterial ribosomes by the antimicrobial peptides Api137 and Api88” (Nature Communications, 2024)
Entries after “also recorded” stand apart in the source; their conditions may differ. Where a SMILES comes first, the peptide text is derived from it. The star is where a group is joined. Orn(α-tetramethylguanidino) = CN(C)C(=N[C@@H](CCCN)C(=O)*)N(C)C

Key:
[1] = biological target: T1, 50S subunit (Escherichia coli, UniProt P0A7M6+P0ADZ0+P60723+P61175); experiment: Fluorescence polarization binding, 50S subunit; design: species or system E. coli
T1 construct: Ribosomes were isolated from the E. coli strain MRE600; made in house; native subunits isolated in house
Experimental: Several hundred grams of log-phase cells were commercially produced and purchased. Cells were washed in buffer A (20 mmol/L HEPES (pH 7.6), 6 mmol/L MgAc2, 30 mmol/L AcOK, 4 mmol/L ß-mercaptoethanol) and lysed in an M-110L microfluidizer (Microfluidics) at 17,000 psi and 4 °C. Cell debris was removed by low-speed centrifugation (15,000× g, 10 min, 4 °C) to obtain S30 lysate. Crude ribosomes, mostly containing 70S ribosomes, were pelleted by ultracentrifugation (40,000× g, 17 h, 4 °C) and resuspended in buffer A. The 70S ribosomes were separated from 30S and 50S subunits by zonal ultracentrifugation (Beckman Ti-15; 6–40% sucrose gradient in buffer A, 44,000× g, 16 h, 4 °C). The 70S-containing fractions were collected, and the ribosomes were sedimented by ultracentrifugation (40,000× g, 17 h, 4 °C). Since these 70S ribosomes still contained tRNAs and mRNA, they were resuspended in buffer B (20 mmol/L HEPES (pH 7.6), 1 mmol/L MgAc2, 0.2 mol/L NH4Ac, 4 mmol/L ß-mercaptoethanol), which allows for dissociation into 30S and 50S subunits, and subjected to a second zonal centrifugation (Beckman Ti-15, 44,000× g, 16 h, 4 °C), but this time in a 6–40% sucrose gradient prepared in buffer B. Fractions containing 30S and 50S subunits were collected, sedimented by ultracentrifugation (40,000× g, 17 h, 4 °C), resuspended in buffer A, aliquoted, shock-frozen in liquid nitrogen, and stored at −80 °C.
Dissociation constants (Kd) were determined using purified 70S ribosome, 50S or 30S subunit and cf-labeled peptides in ribosome preparation buffer. Briefly, black 384-well plates (flat bottom, 781209, Greiner Bio-One GmbH) were blocked with casein (0.5%, w/v) in PBS containing 0.05% (v/v) Tween 20 at 4 °C overnight and washed three times with phosphate buffer. A 2-fold dilution series (22 steps) of pure 70S ribosome, 50S or 30S subunit (10 μL per well) in ribosome preparation buffer was prepared in a black 384-well plate. The cf-labeled peptide was dissolved in ribosome preparation buffer (10 μL, 40 nmol/L), added to each well, centrifuged (500 x g, 2 min), and incubated at 28 ± 1 °C for 90 min. Fluorescence polarization was measured on a […]^TM microplate reader (Beckman Coulter, Krefeld, Germany) in the top reading position (λexc = 485 nm, λem = 535 nm). Data were fitted to a nonlinear dose-response logistic transition equation [y = y0 + a/(1 + (x/x0)b)] using the Levenberg-Marquardt algorithm, with Kd represented by the x0 coefficients (GraphPad Prism for Windows v. 10.1.2, San Diego, CA, USA).

[2] = biological target: T2, purified 70S ribosome (Escherichia coli, UniProt P0A7M6+P0ADZ0+P60723+P61175); experiment: Fluorescence polarization binding, purified 70S ribosome; design: species or system E. coli
T2 construct: obtain highly pure E. coli 70S ribosomes; made in house; host or cells: E. coli BW25113 (native ribosomes isolated, not recombinant)
Experimental: (§1) E. coli BW25113 were grown in LB medium and harvested by centrifugation (5000× g, 15 min, 4 °C) at an OD600 of 3-4. Cell pellets were washed in ribosome preparation buffer (20 mmol/L HEPES-KOH, 6 mmol/L MgCl2, 30 mmol/L NH4Cl, pH 7.6, 4 °C), centrifuged (4100× g, 30 min, 4 °C), and suspended in ribosome preparation buffer ([…]) containing freshly added ß-mercaptoethanol (4 mmol/L). Lysozyme was added to the resuspended cells and incubated for 30 min on ice. Cells were disrupted in six cycles using a FastPrep-24^TM 5 G instrument (MP Biomedicals, Eschwege, Germany) with the BigPrep 50 mL setting (40 s, 4.0 m/s) and one-minute incubation on ice between cycles. […]
(§2) Ribosomes were purified by anion exchange chromatography using an Äkta Pure System (GE Healthcare, Freiburg, Germany) and a CIM®QA column (8 mL, 2 µm channels; Sartorius Stedim Biotech GmbH, Göttingen, Germany). […] The ribosome concentration was estimated by recording the absorbance at 260 nm (considering that 15 AU corresponds to a ribosome concentration of 1 g/L). […]
Dissociation constants (Kd) were determined using purified 70S ribosome, 50S or 30S subunit and cf-labeled peptides in ribosome preparation buffer. […] Fluorescence polarization was measured on a […]^TM microplate reader (Beckman Coulter, Krefeld, Germany) in the top reading position (λexc = 485 nm, λem = 535 nm). […]

[3] = biological target: T2, purified 70S ribosome; experiment: Fluorescence polarization competition with cf-Api88 on purified 70S ribosome; type: binding, E. coli; conditions: competition with cf-Api88, pure 70S ribosome; 28 °C
Experimental: as §1, §2
Inhibition constants (Ki) were determined for the pure 70S ribosome using cf-labeled and unlabeled peptides in the ribosome preparation buffer. […] Fluorescence polarization was measured on a […]^TM microplate reader in the top reading position (λexc = 485 nm, λem = 535 nm). […] The Ki values were calculated as described by Mathias and Jung[39].

[4] = biological target: recombinant TF; conditions: fluorescence polarization; cited from earlier work
Description: Binding sites two and three are close to uL23 and uL29, which is also supported by Api88(Y7B) cross-links. These ribosomal proteins are located adjacent to the PET exit and are binding hubs for the molecular chaperone trigger factor (TF)[34] and the signal recognition particle (SRP), a universally conserved and essential cellular machinery that directs proteins destined for membrane integration to the plasma membrane[35],[36]. This co-translational targeting is initiated by a hydrophobic signal sequence in the nascent protein chain recognized by SRP as it exits the PET. It is appealing to hypo ...

[5] = biological target: DnaK; conditions: read-out: Kd (DnaK); peer review response; cited from earlier work
Description: We now introduce trigger factor in line 446 as “…molecular chaperone…” In addition, we hypothesize that Api88 binds to the ribosome within the contact area of TF, which interacts with uL23 and uL29, two proteins we report here as cross-linked to Api88.

Molecule: CC[C@H](C)[C@H](NC(=O)[C@H](Cc1ccc(O)cc1)NC(=O)[C@@H](NC(=O)[C@@H]1CCCN1C(=O)[C@H](CCCNC(=N)N)NC(=O)[C@H](CC(N)=O)NC(=O)[C@H](CC(N)=O)NC(=O)[C@H](CCCN)N=C(N(C)C)N(C)C)C(C)C)C(=O)N1CCC[C@H]1C(=O)N[C@@H](CCCNC(=N)N)C(=O)N1CCC[C@H]1C(=O)N[C@@H](CCCNC(=N)N)C(=O)N1CCC[C@H]1C(=O)N1CCC[C@H]1C(=O)N[C@@H](Cc1c[nH]cn1)C(=O)N1CCC[C@H]1C(=O)N[C@@H](CCCNC(=N)N)C(=O)N[C@@H](CC(C)C)C(N)=O [Api88] ({Orn(α-tetramethylguanidino)}-NNRPVYIPRPRPPHPRL-NH2)
- Kd ([1]; apparent Kd, cf-labeled PrAMP (10 μL, 40 nmol/L), ribosome preparation buffer pH 7.6, 28 °C, 90 min, mean of triplicates): 580 ± 50 nM
- Kd for 50S subunit lower than for 70S ribosome ([1]; ratio 70S / 50S, cf-labeled): threefold
- Kd ([2]; apparent Kd, cf-labeled PrAMP (10 μL, 40 nmol/L), ribosome preparation buffer (20 mmol/L HEPES-KOH, 6 mmol/L MgCl2, 30 mmol/L NH4Cl, pH 7.6), 28 °C, 90 min, mean of triplicates, read-out: Kd 70S ribosome pure): 1820 ± 80 nM
- higher affinity of Api88 than Api137 ([2]; purified 70S ribosomes and 50S subunits): 2-3 fold

Molecule: CC[C@H]1OC(=O)[C@H](C)[C@@H](O[C@H]2C[C@@](C)(OC)[C@@H](O)[C@H](C)O2)[C@H](C)[C@@H](O[C@@H]2O[C@H](C)C[C@H](N(C)C)[C@H]2O)[C@](C)(O)C[C@@H](C)C(=O)[C@H](C)[C@@H](O)[C@]1(C)O [erythromycin]
- displacement of cf-Api88 / decrease in fluorescence polarization [3]: significantly competing with the binding of cf-Api88; also recorded: reduced the fluorescence polarization to a much lesser extent

Molecule: GNNRPVYIPQPRPPHPRL [apidaecin 1b, reference compound]
- Kd [4]: > 100000 nM
- Kd [5]: ~5000 nM
